Experimental data as given in US12606528B2, “Methods and materials for inhibiting NF-kB activity” (University of Pittsburgh - Of the Commonwealth System of …, priority 2019, dated 2026).
pIC50: −log10 of the molar value. Where two headings read alike, the source gives them in different places.

Experiments:
TNF release = assay: TNF assay: TNF release from LPS-stimulated human PBMCs (TNF ELISA); assay type: cell-based; details: PBMC, read-out: IC50 (TNF assay)
How it was run: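 TNF ELISA on supernatants read-out; cells were 10k human PBMCs/well given LPS at 10 ng/mL for 18 h after a 2 h compound pre-incubation across a concentration series, with IC50 derived for suppression of TNF secretion.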

NF-κB = NF-κB assay: THP1-NF-κB-LUC cells, LPS-stimulated secreted luciferase; assay type: cell-based; details: THP1-NF-κB-LUC cells, read-out: IC50 (NF-κB assay)
How it was run: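 THP1-NF-κB-LUC cells (25k/well) were pretreated with compounds for 2 h, then stimulated with LPS (10 ng/mL) for 18 h. Secreted luciferase was measured and normalized to vehicle, and IC50 was fitted from the concentration series.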

[1] = LPS-stimulated human PBMCs, TNF ELISA
[2] = human PBMCs, compounds 2 hours before LPS (10 ng/ml) for 18 hours, supernatant TNF ELISA
[3] = compounds 2 hours before LPS (10 ng/mL) for 18 hours, secreted luciferase

SMILES | pIC50 (TNF release; [1]) | pIC50 (NF-κB; LPS-stimulated) | pIC50 (TNF release; [2]) | pIC50 (NF-κB; [3])
CCCS(=O)(=O)c1sc(C2CCCCC2)nc1S(=O)(=O)c1ccc(Cl)cc1 [BC19646] | < 5.00 | < 5.00 |  | 
O=S1(=O)CCCn2c(-c3ccccc3)nc(S(=O)(=O)c3ccc(Cl)cc3)c21 [BC19647] | 5.00 to 6.00 | < 5.00 |  | 
O=C1CCOc2c(cc(Br)cc2S(=O)(=O)Nc2ccc(OC(F)(F)F)cc2)N1 [BC19648] | < 5.00 | > 7.00 |  | 
O=C1CCOc2c(cc(Br)cc2S(=O)(=O)Nc2cccc(F)c2)N1 [BC19649] | < 5.00 | > 7.00 |  | 
O=C1CCOc2c(cc(Br)cc2S(=O)(=O)Nc2cccc(Cl)c2)N1 [BC19650] | < 5.00 | > 7.00 |  | 
Cc1ccc(NS(=O)(=O)c2cc(Br)cc3c2OCCC(=O)N3)cc1Cl [BC19651] | < 5.00 | 6.00 to 7.00 |  | 
O=C1CCOc2cc(S(=O)(=O)Nc3ccc(OC(F)(F)F)cc3)c(Br)cc2N1 [BC19652] | < 5.00 | 5.00 to 6.00 |  | 
Cc1ccc(NS(=O)(=O)c2cc3c(cc2Br)NC(=O)CCO3)cc1F [BC19653] | < 5.00 | < 5.00 |  | 
O=C1CCOc2cc(S(=O)(=O)Nc3cccc(F)c3)c(Br)cc2N1 [BC19654] | < 5.00 | < 5.00 |  | 
O=C1CCOc2cc(S(=O)(=O)Nc3cccc(Cl)c3)c(Br)cc2N1 [BC19655] | < 5.00 | < 5.00 |  | 
O=C1CCOc2cc(S(=O)(=O)Nc3ccc(Cl)cc3)c(Br)cc2N1 [BC19656] | < 5.00 | 5.00 to 6.00 |  | 
CCc1cccc(NS(=O)(=O)c2cc3c(cc2Br)NC(=O)CCO3)c1 [BC19657] | < 5.00 | 5.00 to 6.00 |  | 
O=C1CCOc2cc(S(=O)(=O)Nc3ccc(F)cc3Cl)c(Br)cc2N1 [BC19658] | < 5.00 | < 5.00 |  | 
Cc1ccc(NS(=O)(=O)c2cc3c(cc2Br)NC(=O)CCO3)cc1Cl [BC19659] | < 5.00 | < 5.00 |  | 
O=C1CCOc2cc(S(=O)(=O)Nc3ccc(F)cc3)c(Br)cc2N1 [BC19660] | < 5.00 | < 5.00 |  | 
Cc1ccc(NS(=O)(=O)c2cc3c(cc2Br)NC(=O)CCO3)cc1 [BC19661] | < 5.00 | < 5.00 |  | 
CN1CCN(C(=O)C2CCc3nc(-c4ccc(F)cc4)c(-c4ccc(F)cc4)nc3C2)CC1 (stereo not shown) [BC19663] | < 5.00 | 6.00 to 7.00 |  | 
OCCCn1c(-c2ccc3nc(-c4ccc(F)cc4)c(-c4ccc(F)cc4)nc3c2)n[nH]c1=S [BC19664] | 6.00 to 7.00 | 6.00 to 7.00 |  | 
OCCCn1cnnc1-c1ccc2nc(-c3ccc(F)cc3)c(-c3ccc(F)cc3)nc2c1 [BC19665] | 5.00 to 6.00 | > 7.00 |  | 
CN1CCN(C(=O)c2cc3nc(-c4ccc(F)cc4)c(-c4ccc(F)cc4)nc3cn2)CC1 [BC19666] | < 5.00 | 6.00 to 7.00 |  | 
Cn1oc(-c2ccc3nc(-c4ccc(F)cc4)c(-c4ccc(F)cc4)nc3c2)cc1=O [BC19667] | < 5.00 | < 5.00 |  | 
C/N=C(\c1ccc2nc(-c3ccc(F)cc3)c(-c3ccc(F)cc3)nc2c1)N1CCN(C)CC1 [BC19668] | < 5.00 | 6.00 to 7.00 |  | 
C[S+]([O-])c1sc(-c2ccc3ccccc3c2)nc1S(=O)(=O)c1ccc(Cl)cc1 (stereo not shown) [BC19671] | > 7.00 | 5.00 to 6.00 |  | 
CS(=O)(=O)c1sc(-c2ccc3ccccc3c2)nc1S(=O)(=O)c1ccc(Cl)cc1 [BC19672] | 6.00 to 7.00 | 5.00 to 6.00 |  | 
CCC[S+]([O-])c1sc(-c2ccc3ccccc3c2)nc1S(=O)(=O)c1ccc(Cl)cc1 (stereo not shown) [BC19673] | < 5.00 | 5.00 to 6.00 |  | 
CCCS(=O)(=O)c1sc(-c2ccc3ccccc3c2)nc1S(=O)(=O)c1ccc(Cl)cc1 [BC19674] | < 5.00 | 5.00 to 6.00 |  | 
CC(C)C[S+]([O-])c1sc(-c2ccc3ccccc3c2)nc1S(=O)(=O)c1ccc(Cl)cc1 (stereo not shown) [BC19675] | 5.00 to 6.00 | 5.00 to 6.00 |  | 

SMILES | pIC50 (TNF release; [1]) | pIC50 (NF-κB; LPS-stimulated) | pIC50 (TNF release; [2]) | pIC50 (NF-κB; [3])
O=S(=O)(CC1CC1)c1sc(-c2ccc3ccccc3c2)nc1S(=O)(=O)c1ccc(Cl)cc1 [BC19676] | < 5.00 | 5.00 to 6.00 |  | 
COCC[S+]([O-])c1sc(-c2ccc3ccccc3c2)nc1S(=O)(=O)c1ccc(Cl)cc1 (stereo not shown) [BC19677] | 5.00 to 6.00 | 5.00 to 6.00 |  | 
COCCS(=O)(=O)c1sc(-c2ccc3ccccc3c2)nc1S(=O)(=O)c1ccc(Cl)cc1 [BC19678] | 5.00 to 6.00 | 5.00 to 6.00 |  | 
COCC[S+]([O-])c1sc(-c2cccnc2)nc1S(=O)(=O)c1ccc(Cl)cc1 (stereo not shown) [BC19679] | 6.00 to 7.00 | 5.00 to 6.00 |  | 
CCCSc1snc(-c2ccc(F)cc2)c1S(=O)(=O)c1ccc(Cl)cc1 [BC19680] | < 5.00 | < 5.00 |  | 
CCC[S+]([O-])c1snc(-c2ccc(F)cc2)c1S(=O)(=O)c1ccc(Cl)cc1 (stereo not shown) [BC19681] | > 7.00 | 6.00 to 7.00 |  | 
CCCS(=O)(=O)c1snc(-c2ccc(F)cc2)c1S(=O)(=O)c1ccc(Cl)cc1 [BC19682] | > 7.00 | 6.00 to 7.00 |  | 
O=C1CCOc2c(cc(Br)cc2S(=O)(=O)Nc2ccc(Cl)cc2)N1 [BC19685] | 5.00 to 6.00 | > 7.00 |  | 
CCc1ccc(NS(=O)(=O)c2cc(Br)cc3c2OCCC(=O)N3)cc1 [BC19686] | < 5.00 | > 7.00 |  | 
CC(C)c1ccc(NS(=O)(=O)c2cc(Br)cc3c2OCCC(=O)N3)cc1 [BC19687] | < 5.00 | > 7.00 |  | 
COc1ccc(NS(=O)(=O)c2cc(Br)cc3c2OCCC(=O)N3)cc1Cl [BC19688] | < 5.00 | < 5.00 |  | 
O=C1CCOc2cc(S(=O)(=O)Nc3ccccc3)c(Br)cc2N1 [BC19689] | 5.00 to 6.00 | < 5.00 |  | 
CCc1ccc(NS(=O)(=O)c2cc3c(cc2Br)NC(=O)CCO3)cc1 [BC19690] | < 5.00 | < 5.00 |  | 
COc1ccc(NS(=O)(=O)c2cc3c(cc2Br)NC(=O)CCO3)cc1 [BC19692] | < 5.00 | < 5.00 |  | 
O=C1CCOc2cc(S(=O)(=O)Nc3ccc(F)cc3F)c(Br)cc2N1 [BC19693] | < 5.00 | < 5.00 |  | 
COc1ccc(NS(=O)(=O)c2cc3c(cc2Br)NC(=O)CCO3)cc1Cl [BC19694] | < 5.00 | < 5.00 |  | 
N#Cc1ccc(NS(=O)(=O)c2cc3c(cc2Br)NC(=O)CCO3)cc1 [BC19695] | 5.00 to 6.00 | < 5.00 |  | 
CC1Oc2cc(S(=O)(=O)Nc3ccc(Cl)cc3)c(Cl)cc2NC1=O (stereo not shown) [BC19696] |  |  | < 5.00 | 6.00 to 7.00
CC1Oc2c(cc(Cl)cc2S(=O)(=O)Nc2ccc(Cl)cc2)NC1=O (stereo not shown) [BC19697] |  |  | < 5.00 | > 7.00
CC1Oc2cc(S(=O)(=O)Nc3ccc(F)c(F)c3)c(Cl)cc2NC1=O (stereo not shown) [BC19698] |  |  | < 5.00 | > 7.00
CC1Oc2c(cc(Cl)cc2S(=O)(=O)Nc2ccc(F)c(F)c2)NC1=O (stereo not shown) [BC19699] |  |  | < 5.00 | > 7.00
Cc1ccc(NS(=O)(=O)c2cc3c(cc2Cl)NC(=O)C(C)O3)cc1F (stereo not shown) [BC19700] |  |  | < 5.00 | > 7.00
Cc1ccc(NS(=O)(=O)c2cc(Cl)cc3c2OC(C)C(=O)N3)cc1F (stereo not shown) [BC19701] |  |  | < 5.00 | > 7.00
CCc1ccc(NS(=O)(=O)c2cc3c(cc2Cl)NC(=O)C(C)O3)cc1 (stereo not shown) [BC19702] |  |  | < 5.00 | > 7.00
CCc1ccc(NS(=O)(=O)c2cc(Cl)cc3c2OC(C)C(=O)N3)cc1 (stereo not shown) [BC19703] |  |  | < 5.00 | > 7.00
CC1Oc2c(cc(Cl)cc2S(=O)(=O)Nc2ccc(C(C)C)cc2)NC1=O (stereo not shown) [BC19705] |  |  | < 5.00 | > 7.00
